Here are results for 14 molecules from US20260092061A1, “COMPOUNDS FOR TARGETED PROTEIN DEGRADATION” (Amphista Therapeutics Limited, priority 2022, published 2026).

The assay concerns the target T1, BRD9 (Homo sapiens, UniProt Q9H8M2).
T1 sequence (Q9H8M2 1-597): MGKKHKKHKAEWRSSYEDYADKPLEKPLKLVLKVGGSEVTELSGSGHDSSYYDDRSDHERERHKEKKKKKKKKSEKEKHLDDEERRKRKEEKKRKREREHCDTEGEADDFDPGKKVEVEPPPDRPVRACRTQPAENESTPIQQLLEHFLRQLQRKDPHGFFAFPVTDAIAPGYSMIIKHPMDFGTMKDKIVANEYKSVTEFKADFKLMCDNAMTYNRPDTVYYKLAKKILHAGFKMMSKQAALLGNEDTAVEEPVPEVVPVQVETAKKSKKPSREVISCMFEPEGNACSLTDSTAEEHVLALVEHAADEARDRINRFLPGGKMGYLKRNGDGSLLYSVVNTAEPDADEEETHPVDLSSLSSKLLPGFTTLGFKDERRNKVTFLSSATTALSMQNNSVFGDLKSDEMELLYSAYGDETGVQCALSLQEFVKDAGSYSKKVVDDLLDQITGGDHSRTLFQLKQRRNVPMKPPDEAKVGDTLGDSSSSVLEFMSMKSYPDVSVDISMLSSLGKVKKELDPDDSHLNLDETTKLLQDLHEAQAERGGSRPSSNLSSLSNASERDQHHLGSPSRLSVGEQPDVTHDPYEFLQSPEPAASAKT
Description: Degradation of BRD9 (IF), immunofluorescence in MV4-11 cells, 24 hours (Assay Protocol 2). It is filed as cell-based. The note with it: BRD9 degradation. Further details: A suspension of MV4-11 cells (ATCC CRL-9591) was prepared; host or cells: MV4-11. The essentials:
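% BRD9 remaining, scaled between DMSO (high) and 100 nM CFT-8634 (low) control wells, derives from mean Alexa 647 contrast in central nuclei by high-content imaging. MV4-11 cells had 24 h compound exposure at 37° C. before PFA fixation, Triton permeabilisation and anti-BRD9 E4Q3F immunostaining.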

The mark [1] stands for this setting: Assay protocol 2, read-out: DC50.
Setting [2] is: MV4-11, Assay protocol 2, read-out: Dmax.

SMILES strings stand for the structures. Like-named read-outs stand apart in the source and are kept apart here. Some results are limits rather than exact numbers.

For the molecule `COc1cc(-c2cn(C)c(=O)c(C)c2C)cc(OC)c1CN1C[C@@H](C)N(Cc2cccc3c2CCN(C(=O)/C(C#N)=C/C(C)(C)C)C3C)C[C@@H]1C` (mixture of isomers) [Compound B111, (E/Z)-2-(5-(((2R,5S)-4-(2,6-dimethoxy-4-(1,4,5-trimethyl-6-oxo-1,6-dihydropyridin-3-yl)benzyl)-2,5-dimethylpiperazin-1-yl)methyl)-1-methyl-1,2,3,4-tetrahydroisoquinoline-2-carbonyl)-4,4-dimethylpent-2-enenitrile], the DC50 (usually the concentration giving 50% degradation) under setting [1] fell in the range of 10 to 25 nM. Besides, the greatest degradation seen (Dmax) – broadly, the largest share of the target that was removed – under setting [2] was over 75%.

For `COc1cc(-c2cn(C)c(=O)c(C)c2C)cc(OC)c1CN1CCN(Cc2cccc3c2CCN(C(=O)/C(C#N)=C/C(C)(C)C(F)(F)F)C3C)C2(CC2)C1` (mixture of isomers) [Compound B152, (E/Z)-2-(5-((7-(2,6-dimethoxy-4-(1,4,5-trimethyl-6-oxo-1,6-dihydropyridin-3-yl)benzyl)-4,7-diazaspiro[2.5]octan-4-yl)methyl)-1-methyl-1,2,3,4-tetrahydroisoquinoline-2-carbonyl)-5,5,5-trifluoro-4,4-dimethylpent-2-enenitrile], under setting [1], the DC50 lay in the range of 1.25 to 10 nM. The Dmax under setting [2] is over 75%.

As for `COc1cc(-c2cn(C)c(=O)c(C)c2C)cc(OC)c1CN1CCC2(CCN(c3ccc4c(c3)[C@H](C)N(C(=O)/C(C#N)=C/C(C)(C)C)CC4)C2)C1` (single isomer, unassigned) [Compound C52], the DC50 under setting [1] lay within 10 to 25 nM. Under setting [2], the Dmax was in the range of 40 to 70%.

On to `COc1cc(-c2cn(C)c(=O)c(C)c2C)cc(OC)c1CN1CCN(c2cccc(C3CCCN3C(=O)/C(C#N)=C/C(C)C)c2)CC1` (mixture of isomers) [Compound B106, (E/Z)-2-(2-(3-(4-(2,6-dimethoxy-4-(1,4,5-trimethyl-6-oxo-1,6-dihydropyridin-3-yl)benzyl)piperazin-1-yl)phenyl)pyrrolidine-1-carbonyl)-4-methylpent-2-enenitrile], for which the DC50 under setting [1] was in the range of 1.25 to 10 nM. Besides, under setting [2], the Dmax is over 75%.

As to `COc1cc(-c2cn(C)c(=O)c3[nH]ncc23)cc(OC)c1CN1CCN(Cc2cccc3c2CCN(C(=O)/C(C#N)=C/C(C)(C)C)C3C)C2(CC2)C1` (mixture of isomers) [Compound B104, (E/Z)-2-(5-((7-(2,6-dimethoxy-4-(6-methyl-7-oxo-6,7-dihydro-1H-pyrazolo[3,4-c]pyridin-4-yl)benzyl)-4,7-diazaspiro[2.5]octan-4-yl)methyl)-1-methyl-1,2,3,4-tetrahydroisoquinoline-2-carbonyl)-4,4-dimethylpent-2-enenitrile], under setting [1], the DC50 was under 1.25 nM. For the same molecule, the Dmax under setting [2] is over 75%.

For `COc1cc(-c2cn(C)c(=O)c(C)c2C)ccc1OC1CCN(Cc2cccc3c2CCN(C(=O)/C(C#N)=C/C(C)(C)C)C3C)C2(CC2)C1` (mixture of isomers) [Compound C72, (E/Z)-2-(5-((7-(2-methoxy-4-(1,4,5-trimethyl-6-oxo-1,6-dihydropyridin-3-yl)phenoxy)-4-azaspiro[2.5]octan-4-yl)methyl)-1-methyl-1,2,3,4-tetrahydroisoquinoline-2-carbonyl)-4,4-dimethylpent-2-enenitrile], the DC50 under setting [1] was in the range of 25 to 1000 nM. Further, under setting [2], the Dmax was over 75%.

Consider `COc1cc(-c2cn(C)c(=O)c(C)c2C)cc(OC)c1CN1CCC2(CC1)CCN(c1ccc3c(c1)[C@H](C)N(C(=O)/C(C#N)=C/C(C)(C)C)CC3)C2` (single isomer, unassigned) [Compound C66], for which the DC50 under setting [1] lay within 1.25 to 10 nM. For the same molecule, under setting [2], the Dmax fell in the range of 40 to 70%.

`COc1cc(-c2cn(C)c(=O)c(C)c2C)cc(OC)c1CN1CCC(Oc2ccc3c(c2)[C@H](C)N(C(=O)/C(C#N)=C/C(C)(C)C)CC3)CC1` (single isomer, unassigned) [Compound C73, (E/Z)-2-(7-((1-(2,6-dimethoxy-4-(1,4,5-trimethyl-6-oxo-1,6-dihydropyridin-3-yl)benzyl)piperidin-4-yl)oxy)-1-methyl-1,2,3,4-tetrahydroisoquinoline-2-carbonyl)-4,4-dimethylpent-2-enenitrile]: under setting [1], the DC50 is 1.25 to 10 nM. Further, the Dmax under setting [2] was over 75%.

Take `COc1cc(/C=C(\C#N)C(=O)N2CCc3c(CN4CCN(Cc5c(OC)cc(-c6cn(C)c(=O)c(C)c6C)cc5OC)CC4)cccc3C2C)c(F)cn1` (mixture of isomers) [Compound B92, (E/Z)-2-(5-((4-(2,6-dimethoxy-4-(1,4,5-trimethyl-6-oxo-1,6-dihydropyridin-3-yl)benzyl)piperazin-1-yl)methyl)-1-methyl-1,2,3,4-tetrahydroisoquinoline-2-carbonyl)-3-(5-fluoro-2-methoxypyridin-4-yl)acrylonitrile]: under setting [1], the DC50 is under 1.25 nM. Also, the Dmax under setting [2] was 40 to 70%.

Take `COc1cc(-c2cn(C)c(=O)c(C)c2C)cc(OC)c1CN1CCN(C(=O)[C@H]2CN(C(=O)/C(C#N)=C/C(C)(C)C)C[C@@H]2C)CC1` [Compound B214]: under “MV4-11, Table 4, determined according to Assay Protocol 2, read-out: Dmax^2”, the maximal degradation (Dmax) was in the range of 50 to 70%. Further, the DC50 (Table 4, determined according to Assay Protocol 2, read-out: DC50^2) was over 200 nM.

Consider `COc1cc(-c2cn(C)c(=O)c(C)c2C)cc(OC)c1CN1CCC2(CC1)CCN(c1cccc3c1CCN(C(=O)/C(C#N)=C/C(C)(C)CF)[C@@H]3C)C2` (mixture of isomers) [Compound C48, (E/Z)-2-(5-(8-(2,6-dimethoxy-4-(1,4,5-trimethyl-4-oxo-1,6-dihydropyridin-3-yl)benzyl)-2,8-diazaspiro[4.5]decan-2-yl)-1-methyl-1,2,3,4-tetrahydroisoquinoline-2-carbonyl)-5-fluoro-4,4-dimethylpent-2-enenitrile], for which, under setting [1], the DC50 fell in the range of 1.25 to 10 nM. Also, the Dmax under setting [2] was over 75%.

In the case of `COc1cc(-c2cn(C)c(=O)c(C)c2C)cc(OC)c1CN1CCC(Cc2cccc3c2CCN(C(=O)/C(C#N)=C/C(C)(C)C)[C@H]3C)CC1` (single isomer, unassigned) [Compound C59, (E/Z)-2-(5-((1-(2,6-dimethoxy-4-(1,4,5-trimethyl-6-oxo-1,6-dihydropyridin-3-yl)benzyl)piperidin-4-yl)methyl)-1-methyl-1,2,3,4-tetrahydroisoquinoline-2-carbonyl)-4,4-dimethylpent-2-enenitrile], the half-maximal degradation concentration (DC50) under setting [1] is 1.25 to 10 nM. Besides, the Dmax under setting [2] was in the range of 40 to 70%.

Turning to `COc1cc(-c2cn(C)c(=O)c(C)c2C)cc(OC)c1CN1CCN(CCc2cccc3c2CCN(C(=O)/C(C#N)=C/C(C)(C)C)C3C)C2(CC2)C1` (mixture of isomers) [Compound B154], under setting [1], the DC50 was in the range of 10 to 25 nM. Also, the Dmax under setting [2] is 40 to 70%.

For the molecule `COc1cc(-c2cn(C)c(=O)c(C)c2C)cc(OC)c1CN1CCN(Cc2cccc3c2CCN(C(=O)/C(C#N)=C/C2CCOCC2)C3C)C2(CC2)C1` (mixture of isomers) [Compound B137, (E/Z)-2-(5-((7-(2,6-dimethoxy-4-(1,4,5-trimethyl-6-oxo-1,6-dihydropyridin-3-yl)benzyl)-4,7-diazaspiro[2.5]octan-4-yl)methyl)-1-methyl-1,2,3,4-tetrahydroisoquinoline-2-carbonyl)-3-(tetrahydro-2H-pyran-4-yl)acrylonitrile], the DC50 under setting [1] fell in the range of 1.25 to 10 nM. Also, under setting [2], the maximal degradation (Dmax) is over 75%.
